Experimental data published in article PMC11963566, “A phase I, single-center, randomized, open-label, three-period crossover study to evaluate the drug–drug interaction between ZSP1273 and oseltamivir in healthy Chinese subjects” (Antimicrobial Agents and Chemotherapy, 2025).
Where two headings read alike, the source gives them in different places.

Assays:
[1] = Safety assessment: adverse events (CTCAE 5.0, MedDRA 23.1) in healthy subjects; type: in vivo, human
Procedure: Safety assessment was conducted from the first administration of the investigational drug until the end of the trial. Safety indicators included adverse events (AEs), serious adverse events (SAEs), clinical laboratory tests (hematology, biochemistry, and urinalysis), vital signs, physical examination, and 12-lead electrocardiogram.
The severity of AE was assessed according to the CTCAE 5.0 standard and includes grades 1 to 5. Based on the criteria for determining causality between drugs and adverse events, the relationship was classified into five levels: definitely related, probably related, possibly related, probably not related, definitely not related. Among them, definitely related, probably related, and possibly related are defined as drug-related AEs.
Adverse events were coded using Med DRA 23.1 Chinese ([30]) and analyzed based on system organ class (SOC) and preferred term (PT). Adverse events during the treatment period, drug-related adverse events, and serious adverse events were described by frequency, number of cases (n), and incidence rate (%) according to SOC, PT, and the highest severity classification.

[2] = for AUC0-t,ss / AUC0-τ,ss / AUC0-∞,ss / CLss/F / Cmax,ss / Vz/F / t1/2,ss / λz / Ctrough: arithmetic mean ± SD; for Tmax,ss: median (minimum, maximum)
[3] = tested on: influenza A (2009 H1N1); details: compared with oseltamivir or pimodivir; cited from earlier work
[4] = cited from earlier work
[5] = doses up to 1,200 mg; cited from earlier work
[6] = tested on: influenza A; details: adult patients, especially 600 mg once per day; cited from earlier work
[7] = clinical; details: human
[8] = cited from earlier work; remark: listed apart in the source
[9] = SOC Gastrointestinal disorders, probably related
[10] = SOC General disorders and administration site conditions, possibly related
[11] = SOC Infections and infestations, probably not related
[12] = SOC Investigations, possibly related
[13] = SOC Investigations, probably not related
[14] = SOC Skin and subcutaneous tissue disorders, possibly related
[15] = healthy subjects, 5 days dosing
[16] = all subjects, no-effect boundary 80%–125%
[17] = co-administration ZSP1273 600 mg QD + oseltamivir 75 mg BID, oral, 5 days, plasma, day 5
[18] = co-administration ZSP1273 + oseltamivir, plasma, day 5
[19] = co-administration versus monotherapy analysis
[20] = monotherapy (ZSP1273 600 mg QD or oseltamivir 75 mg BID, oral, 5 days), plasma, day 5
[21] = subjects with AUC_%Extrap >20.0% or Rsq <0.800 excluded

O=C(O)[C@H]1C2CCC(CC2)[C@@H]1Nc1nc(-c2n[nH]c3ncc(F)cc23)nc(C2CC2)c1F [ZSP1273]
Gastrointestinal disorders (SOC): Cases (%) ([1]; AE by system organ class): 5 (13.9) Cases (%)
Gastrointestinal disorders (SOC): Occurrences ([1]; AE by system organ class): 5
General disorders and administration site conditions (SOC): Cases (%) ([1]; AE by system organ class): 0 Cases (%)
General disorders and administration site conditions (SOC): Occurrences ([1]; AE by system organ class): 0
Infections and infestations (SOC): Cases (%) ([1]; AE by system organ class): 0 Cases (%)
Infections and infestations (SOC): Occurrences ([1]; AE by system organ class): 0
Investigations (SOC): Cases (%) ([1]; AE by system organ class): 8 (22.2) Cases (%)
Investigations (SOC): Occurrences ([1]; AE by system organ class): 18
Skin and subcutaneous tissue disorders (SOC): Cases (%) ([1]; AE by system organ class): 1 (2.8) Cases (%)
Skin and subcutaneous tissue disorders (SOC): Occurrences ([1]; AE by system organ class): 1
Diarrhea: Cases (%) [1, 9]: 5 (13.9) Cases (%)
Diarrhea: Occurrences [1, 9]: 5
Fever: Cases (%) [1, 10]: 0 Cases (%)
Fever: Occurrences [1, 10]: 0
Upper respiratory tract infection (URTI): Cases (%) [1, 11]: 0 Cases (%)
Upper respiratory tract infection (URTI): Occurrences [1, 11]: 0
Decreased blood triglycerides: Cases (%) [1, 12]: 0 Cases (%)
Decreased blood triglycerides: Occurrences [1, 12]: 0
Decreased high-density lipoprotein (HDL): Cases (%) [1, 12]: 1 (2.8) Cases (%)
Decreased high-density lipoprotein (HDL): Occurrences [1, 12]: 1
Decreased neutrophil count: Cases (%) [1, 12]: 0 Cases (%)
Decreased neutrophil count: Occurrences [1, 12]: 0
Increased blood cholesterol: Cases (%) [1, 12]: 2 (5.6) Cases (%)
Increased blood cholesterol: Occurrences [1, 12]: 2
Increased blood creatinine: Cases (%) [1, 12]: 3 (8.3) Cases (%)
Increased blood creatinine: Occurrences [1, 12]: 3
Increased blood triglycerides: Cases (%) [1, 12]: 4 (11.1) Cases (%)
Increased blood triglycerides: Occurrences [1, 12]: 4
Increased blood uric acid: Cases (%) [1, 12]: 2 (5.6) Cases (%)
Increased blood uric acid: Occurrences [1, 12]: 2
Increased gamma-glutamyl transferase (GGT): Cases (%) [1, 12]: 1 (2.8) Cases (%)
Increased gamma-glutamyl transferase (GGT): Occurrences [1, 12]: 1
Increased lipase: Cases (%) [1, 12]: 1 (2.8) Cases (%)
Increased lipase: Occurrences [1, 12]: 1
Increased low-density lipoprotein (LDL): Cases (%) [1, 12]: 2 (5.6) Cases (%)
Increased low-density lipoprotein (LDL): Occurrences [1, 12]: 2
Crystals present in urine: Cases (%) [1, 13]: 0 Cases (%)
Crystals present in urine: Occurrences [1, 13]: 0
Decreased hemoglobin: Cases (%) [1, 13]: 2 (5.6) Cases (%)
Decreased hemoglobin: Occurrences [1, 13]: 2
Increased urine specific gravity: Cases (%) [1, 13]: 0 Cases (%)
Increased urine specific gravity: Occurrences [1, 13]: 0
Nitrites present in urine: Cases (%) [1, 13]: 0 Cases (%)
Nitrites present in urine: Occurrences [1, 13]: 0
Positive urine occult blood: Cases (%) [1, 13]: 0 Cases (%)
Positive urine occult blood: Occurrences [1, 13]: 0
Protein detected in urine: Cases (%) [1, 13]: 0 Cases (%)
Protein detected in urine: Occurrences [1, 13]: 0
Acneiform dermatitis: Cases (%) [1, 14]: 0 Cases (%)
Acneiform dermatitis: Occurrences [1, 14]: 0
Maculopapular rash: Cases (%) [1, 14]: 1 (2.8) Cases (%)
Maculopapular rash: Occurrences [1, 14]: 1
diarrhea, incidence ([1]; drug-related adverse event): 13.9%
increased blood triglycerides, incidence ([1]; drug-related adverse event): 11.1%
subjects with drug-related adverse events, incidence ([1]; healthy subjects): 30.6%
At least one treatment-emergent adverse event (TEAE): Cases (%) [1, 15]: 12 (33.3) Cases (%)
At least one treatment-emergent adverse event (TEAE): Occurrences [1, 15]: 24
At least one treatment-emergent adverse event related to drugs: Cases (%) [1, 15]: 11 (30.6) Cases (%)
At least one treatment-emergent adverse event related to drugs: Occurrences [1, 15]: 22
AUC0-∞,ss, intra-individual coefficient of variation ([2]; all subjects): 23.4%
AUC0-∞,ss, geometric mean ratio co-administration/monotherapy [2, 16]: 91.8%
AUC0-t,ss [2, 17]: 14,939.0 ± 6,027.0 (40.3%) h*ng/mL
AUC0-τ,ss [2, 17]: 13,656.5 ± 4,758.0 (34.8%) h*ng/mL
AUC0-∞,ss [2, 17]: 15,865.8 ± 6,635.4 (41.8%) h*ng/mL
CLss/F [2, 17]: 48.6 ± 15.3 (31.4%) L/h
Cmax,ss [2, 17]: 6,270.0 ± 3,369.7 (53.7%) ng/mL
Vz/F [2, 17]: 923.8 ± 659.5 (71.4%) L
t1/2,ss [2, 17]: 14.0 ± 10.3 (73.5%) h
λz [2, 17]: 0.070 ± 0.041 (58.7%) 1 /h
Tmax,ss [2, 17]: 1.50 (0.25, 4.00) h
Ctrough ([2]; co-administration ZSP1273 600 mg QD + oseltamivir 75 mg BID, oral, 5 days, plasma): 77.7 ± 49.7 (64.0%) ng/mL
AUC0-t,ss, geometric mean [2, 18]: 13,926.7 h*ng/mL
AUC0-τ,ss, geometric mean [2, 18]: 12,964.7 h*ng/mL
Cmax,ss, geometric mean [2, 18]: 5,466.0 ng/mL
AUC0-∞,ss, geometric mean ([2]; co-administration ZSP1273 + oseltamivir, plasma, day 5, all subjects): 14,749.3 h*ng/mL
AUC0-t,ss, intra-individual coefficient of variation [2, 19]: 19.9%
AUC0-τ,ss, intra-individual coefficient of variation [2, 19]: 18.6%
Cmax,ss, intra-individual coefficient of variation [2, 19]: 49.2%
AUC0-∞,ss, geometric mean ([2]; co-administration, subjects with AUC_%Extrap >20.0% or Rsq <0.800 excluded): 14,219.8^b h*ng/mL
AUC0-t,ss, geometric mean ratio co-administration/monotherapy ([2]; human, in vivo): 92.8%
AUC0-τ,ss, geometric mean ratio co-administration/monotherapy ([2]; human, in vivo): 96.3%
Cmax,ss, geometric mean ratio co-administration/monotherapy ([2]; human, in vivo): 99.9%
AUC0-t,ss [2, 20]: 16,529.6 ± 7,808.2 (47.2%) h*ng/mL
AUC0-τ,ss [2, 20]: 14,487.1 ± 5,519.8 (38.1%) h*ng/mL
AUC0-∞,ss [2, 20]: 18,392.1 ± 12,058.8 (65.6%) h*ng/mL
CLss/F [2, 20]: 47.4 ± 17.8 (37.5%) L/h
Vz/F [2, 20]: 1,006.5 ± 1,265.7 (125.8%) L
t1/2,ss [2, 20]: 17.8 ± 33.6 (189.1%) h
λz [2, 20]: 0.074 ± 0.046 (62.5%) 1 /h
Tmax,ss [2, 20]: 0.88 (0.25, 4.01) h
Ctrough ([2]; monotherapy (ZSP1273 600 mg QD or oseltamivir 75 mg BID, oral, 5 days), plasma): 86.3 ± 77.4 (89.6%) ng/mL
Cmax,ss ([2]; monotherapy (ZSP1273 tablets 600 mg QD or oseltamivir capsules 75 mg BID, oral, 5 days), plasma, day 5): 6,421.7 ± 3,660.6 (57.0%) ng/mL
AUC0-t,ss, geometric mean ([2]; monotherapy, plasma, day 5): 15,031.4 h*ng/mL
AUC0-τ,ss, geometric mean ([2]; monotherapy, plasma, day 5): 13,543.4 h*ng/mL
Cmax,ss, geometric mean ([2]; monotherapy, plasma, day 5): 5,517.1 ng/mL
AUC0-∞,ss, geometric mean ([2]; monotherapy, plasma, day 5, all subjects): 16,036.9 h*ng/mL
AUC0-∞,ss, geometric mean ([2]; monotherapy, subjects with AUC_%Extrap >20.0% or Rsq <0.800 excluded): 15,576.5^a h*ng/mL
AUC0-∞,ss, geometric mean ratio co-administration/monotherapy [2, 21]: 94.5%
AUC0-∞,ss, intra-individual coefficient of variation [2, 21]: 18.8%
pulmonary viral loads and mortality [3]: effectively reduced pulmonary viral loads and mortality
plasma protein binding rate ([4]; in humans, not measured in this study, no reference given): greater than 98.9%
safety in healthy volunteers [5]: no apparent safety concerns were noticed
efficacy versus placebo [6]: higher efficacy than placebo in ameliorating influenza symptoms and lowering the viral load

CCC(CC)O[C@@H]1C=C(C(=O)O)C[C@H](N)[C@H]1NC(C)=O [Oseltamivir carboxylate, oseltamivir carboxylate]
AUC0-∞,ss, geometric mean ratio co-administration/monotherapy [2, 16]: 87.1%
AUC0-t,ss, geometric mean ratio co-administration/monotherapy ([2]; human, in vivo): 86.7%
AUC0-τ,ss, geometric mean ratio co-administration/monotherapy ([2]; human, in vivo): 83.3%
AUC0-∞,ss, intra-individual coefficient of variation ([2]; human, in vivo): 8.4%
Cmax,ss, geometric mean ratio co-administration/monotherapy ([2]; human, in vivo): 80.4%
AUC(0-t) ([7]; in vivo, AUC0-t,ss, geometric mean): 5080 ng·h/mL
AUC ([7]; in vivo, AUC0-τ,ss, geometric mean): 3320 ng·h/mL
AUC(0-inf) ([7]; in vivo, AUC0-∞,ss, geometric mean): 5170 ng·h/mL
Cmax ([7]; in vivo, Cmax,ss, geometric mean): 393 ng/mL
Tmax ([7]; in vivo, po, Tmax,ss): 4 h
half-life ([7]; in vivo, po, t1/2,ss): 10.3 ± 1.6 h
k el ([7]; plasma, po, 75 mg): 1.92e-05 s⁻¹
plasma protein binding rate [4]: approximately 3%
fraction excreted by the kidneys [8]: more than 99%
